Assay results reported in patent US6313376A, “Maize aquaporins and uses thereof” (Pioneer Hi-Bred International, Inc., priority 1999, dated 2001).

Key:
[1] = test system: ZmPIP2; assay: Osmotic water permeability assay, water channel activity of ZmPIP2 in the presence of cAMP agonists or phosphatase inhibitor; assay type: cell-based, Zea mays; details: cAMP agonists to activate cellular PKA, or protein phosphatase inhibitor
Method: (§1) Xenopus laevis oocytes were prepared and injected as previously described (Daniels et al., 1996). The osmotic water permeability assay was conducted as previously described (Weig et al., 1997).
A number of studies indicate that the activity of aquaporins may be regulated by phosphorylation. For instance, -TIP, a seed specific vacuolar protein from bean, is phosphorylated in vivo and in vitro and the phosphorylation regulates its water channel activity in Xenopus oocytes (Maurel et al., 1993). […] Water channel activity of ZmPIP2 was tested in the presence of (1) cAMP agonists (8-bromoadenosine 3', 5'-cyclic monophosphate, forksolin and 3-isobutyl-1-methylxanthine) to increase the cytosolic cAMP concentration and activate cellular PKA and (2) protein phosphatase inhibitor okadeic acid.

[2] = biological target: T1, ZmPIP3 (Zea mays, UniProt Q9XF58); assay: Osmotic water permeability assay (Xenopus oocyte swelling), inhibition of water transport through ZmPIP3; assay type: cell-based
T1 construct: plasma membrane swelling assay; insert borders and tag not described
T1 sequence (Q9XF58 1-284): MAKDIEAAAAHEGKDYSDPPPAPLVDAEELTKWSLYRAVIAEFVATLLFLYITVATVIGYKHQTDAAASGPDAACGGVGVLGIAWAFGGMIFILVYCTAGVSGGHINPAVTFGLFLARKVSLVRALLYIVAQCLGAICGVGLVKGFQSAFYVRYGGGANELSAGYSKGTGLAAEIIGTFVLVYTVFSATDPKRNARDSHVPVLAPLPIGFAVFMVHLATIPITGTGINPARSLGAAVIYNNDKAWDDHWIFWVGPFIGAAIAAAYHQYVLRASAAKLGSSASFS
Method: as §1
(§2) The biological activity of aquaporins is usually determined with Xenopus oocyte swelling assays (Maurel et al, 1993). MIP cRNA is injected into oocytes and after a 3-day incubation the oocytes are moved to a hypotonic medium. If water channel proteins are present in the plasma membrane, the oocytes swell and burst much faster than the control oocytes. […] The osmotic water permeability coefficient (Pf) of the oocyte membrane increased 8-fold over the control. Mercurial compounds are characteristic inhibitors of many water-channel proteins. Water transport through ZmPIP3 is inhibited 50% by 1 mM mercuric chloride and this inhibition is reversed by the reducing agent -mercaptoethanol.

[3] = test system: Xenopus laevis oocytes; assay: Osmotic water permeability assay of cRNA-injected oocytes (Pf of the oocyte membrane); assay type: cell-based; details: cRNA-injected oocytes moved to hypotonic medium after 3-day incubation; versus control oocytes
Method: as §1, §2

[4] = test system: Xenopus laevis oocytes; assay: Radiolabeled solute uptake assay in ZmPIP2-expressing oocytes; assay type: cell-based; details: 1 mM solute, 21° C., 0, 15 and 30 min
Method: Two to three days after water or mRNA injection, groups of 5 oocytes were incubated at 21° C. in […] of Barth's solution containing 0.1 to 0.5 MBq/ml of the radiolabeled solutes ([^14 C]glycerol, […]; [^14 C]choline, 2.0 GBq/mmol; [^14 C]ethanol, 0.144 GBq/mmol; [^14 C]urea, 2.0 GBq/mmol or [^14 C]labeled amino acid mixture without methionine, 1.85 MBq/ml). Nonradioactive solutes were added to give a 1 mM final concentration. After 0, 15 and 30 min, the oocytes were washed rapidly three times in ice-cold Barth's solution, and individual oocytes were dissolved in 5% SDS for scintillation counting.
Although many MIP proteins are aquaporin, some of them can transport small neutral solutes, exclusively or in addition to water. For instance, tobacco NtTIPa and NtAQP1 transport glycerol in addition to water (Gerbeau et al., 1999), whilst the bacterial GIpF is a selective glycerol facilitator. Transport essays were performed in ZmPIP2-expressing oocytes with a series of labeled solutes including glycerol, urea, ethanol, choline and amino acids.

CC(C)Cn1c(=O)n(C)c(=O)c2[nH]cnc21 [3-isobutyl-1-methylxanthine]
effect on Pf of ZmPIP2-expressing oocytes [1]: None of these treatments affected the Pf

Nc1ncnc2c1nc(Br)n2[C@@H]1O[C@@H]2COP(=O)(O)O[C@H]2[C@H]1O [8-bromoadenosine 3', 5'-cyclic monophosphate]
effect on Pf of ZmPIP2-expressing oocytes [1]: None of these treatments affected the Pf

OCCS [-mercaptoethanol]
reversal of mercuric chloride inhibition of ZmPIP3 water transport ([2]; reducing agent added after 1 mM mercuric chloride inhibition): reversed

C=C[C@@]1(C)CC(=O)[C@]2(O)[C@@]3(C)[C@@H](O)CCC(C)(C)[C@@H]3[C@H](O)[C@H](OC(C)=O)[C@@]2(C)O1 [forksolin]
effect on Pf of ZmPIP2-expressing oocytes [1]: None of these treatments affected the Pf

[Cl][Hg][Cl] [mercuric chloride]
inhibition of water transport through ZmPIP3 ([2]; 1 mM mercuric chloride, ZmPIP3 cRNA-injected Xenopus oocytes): 50%

okadeic acid
effect on Pf of ZmPIP2-expressing oocytes [1]: None of these treatments affected the Pf

B1: ZmPIP3: maize aquaporin; polypeptide of SEQ ID NO: 4, expressed from cRNA in Xenopus oocytes (protein)
chain: MAKDIEAAAAHEGKDYSDPPPAPLVDAEELTKWSLYRAVIAEFVATLLFLYITVATVIGYKHQTDAAASGPDAACGGVGVLGIAWAFGGMIFILVYCTAGVSGGHINPAVTFGLFLARKVSLVRALLYIVAQCLGAICGVGLVKGFQSAFYVRYGGGANELSAGYSKGTGLAAEIIGTFVLVYTVFSATDPKRNARDSHVPVLAPLPIGFAVFMVHLATIPITGTGINPARSLGAAVIYNNDKAWDDHWIFWVGPFIGAAIAAAYHQYVLRASAAKLGSSASFS
increase of osmotic water permeability coefficient (Pf) of the oocyte membrane over the control [3]: 8 fold

B2: ZmPIP2: maize aquaporin designation; polypeptide of SEQ ID NO: 2, expressed from cRNA in Xenopus oocytes (protein)
chain: MEGKEEDVRLGANKFSERQPIGTAAQGAADDKDYKEPPPAPLFEPGELKSWSFYRAGIAEFVATFLFLYITILTVMGVSKSTSKCATVGIQGIAWSFGGMIFALVYCTAGISGGHINPAVTFGLFLARKLSLTRALFYIIMQCLGAICGAGVVKGFQQGLYMGNGGGANVVAPGYTKGDGLGAEIVGTFILVYTVFSATDAKRNARDSHVPILAPLPIGFAVFLVHLATIPITGTGINPARSLGAAIIYNRDHAWNDHWIFWVGPFIGAALAAIYHQVIIRAIPFKSR
transport of labeled solutes (glycerol, urea, ethanol, choline, amino acids) versus water-injected oocytes [4]: None of the solutes tested were preferentially transported

B3: AtRD28: plasma membrane AtRD28 aquaporin (Daniels et al., 1994), positive control in oocytes (protein, UniProt P30302 1-285, looked up)
Aquaporin PIP2-3: MAKDVEGPDGFQTRDYEDPPPTPFFDAEELTKWSLYRAVIAEFVATLLFLYVTVLTVIGYKIQSDTKAGGVDCGGVGILGIAWAFGGMIFILVYCTAGISGGHINPAVTFGLFLARKVSLIRAVLYMVAQCLGAICGVGFVKAFQSSHYVNYGGGANFLADGYNTGTGLAAEIIGTFVLVYTVFSATDPKRNARDSHVPVLAPLPIGFAVFMVHLATIPITGTGINPARSFGAAVIFNKSKPWDDHWIFWVGPFIGATIAAFYHQFVLRASGSKSLGSFRSAANV
increase of osmotic water permeability coefficient (Pf) of the oocyte membrane over the control [3]: 8 fold
